The test system of experiment [1] is HaCaT. Description: Cell survival by CellTiterGlo, control cells. The class given is cell-based, human. The settings on record: for IC50: Homo sapiens, HaCaT, control skin cell line, CellTiterGlo, normalized to DMSO, read-out: IC50 (nM) HaCaT; for AUC (arbitrary units) HaCaT: area under the dose-response curve, control cells.
Experiment [2] has as its system MCC13. The experiment is described as follows: Cell survival by CellTiterGlo, VN-MCC line MCC13. In kind it is cell-based. The conditions noted are these: for IC50: CellTiterGlo, normalized to DMSO; for AUC (arbitrary units) MCC13: area under the dose-response curve. (In general: Cellular ATP, detected with luciferase, serves as a proxy for viable cell number.)
The test system of experiment [3] is MCC26. Description: Cell survival by CellTiterGlo, VN-MCC line MCC26. In kind it is cell-based. The conditions noted are these: for IC50: CellTiterGlo, normalized to DMSO; for AUC (arbitrary units) MCC26: area under the dose-response curve.
In experiment [4] the test system is UISO. The experiment is described as follows: Cell survival by CellTiterGlo, VN-MCC line UISO. The class given is cell-based. The settings on record: for IC50: CellTiterGlo, normalized to DMSO; for AUC (arbitrary units) UISO: area under the dose-response curve.
The subject of experiment [5] is MKL-1. Description: Cell survival by CellTiterGlo, VP-MCC line MKL-1. The settings on record: VP-MCC; for IC50: MKL-1, CellTiterGlo, normalized to DMSO, read-out: IC50 (nM) MKL-1; for AUC (arbitrary units) MKL-1: area under the dose-response curve. In kind it is cell-based.
Experiment [6] relates to MKL-2. Description: Cell survival by CellTiterGlo, VP-MCC line MKL-2. The settings on record: for IC50: CellTiterGlo, normalized to DMSO; for AUC (arbitrary units) MKL-2: area under the dose-response curve. In kind it is cell-based.
Experiment [7] has as its system Waga. The experiment is described as follows: Cell survival by CellTiterGlo, VP-MCC line Waga. The settings on record: for IC50: CellTiterGlo, normalized to DMSO; for AUC (arbitrary units) WaGa: area under the dose-response curve. In kind it is cell-based.

Five compounds from publication PMC10532587, “An Investigation of Structure–Activity Relationships and Cell Death Mechanisms of the Marine Alkaloids Discorhabdins in Merkel Cell Carcinoma Cells” (Marine Drugs, 2023) can be followed below.

In the case of `O=C1C2=C(C3=NCCc4c[nH]c1c43)C1(C=C(Br)C(O)C(Br)=C1)CCN2` (stereo not shown) [Compound 16, 3-dihydrodiscorhabdin C], in experiment [1], the IC50 (in general, the point on the concentration scale where inhibition reaches its midpoint) came out at 4130 nM and the “AUC (arbitrary units) HaCaT” value was 454.5 arbitrary units. Besides, in experiment [2], the IC50 was 3470 nM and the “AUC (arbitrary units) MCC13” value was determined as 404 arbitrary units. In experiment [3], it took 4700 nM to reach half-maximal inhibition (IC50) and the “AUC (arbitrary units) MCC26” value stood at 543.3 arbitrary units. Moreover, in experiment [4], the IC50 came out at 3090 nM and the “AUC (arbitrary units) UISO” value worked out at 375.8 arbitrary units. Further, in experiment [5], the IC50 was found to be 1630 nM and the “AUC (arbitrary units) MKL-1” value came to 195.9 arbitrary units. Also, in experiment [6], the IC50 amounted to 1940 nM and the “AUC (arbitrary units) MKL-2” value is recorded as 277.4 arbitrary units. Further, in experiment [7], the IC50 was found to be 3200 nM and the “AUC (arbitrary units) WaGa” value is 370.5 arbitrary units.

For the compound `O=C1C=C2S[C@H]3C[C@]2(C=C1Br)C1=C(N3)C(=O)c2[nH]cc3ccnc1c23` [Compound 3, (+)-(6S,8S) discorhabdin Q], in experiment [1], the IC50 is 5450 nM and the “AUC (arbitrary units) HaCaT” value was 604.2 arbitrary units. Besides, in experiment [2], the midpoint of inhibition, the IC50, lay at 3500 nM and the “AUC (arbitrary units) MCC13” value came out at 419.1 arbitrary units. In experiment [3], it took 3760 nM to reach half-maximal inhibition (IC50) and the “AUC (arbitrary units) MCC26” value stood at 432.3 arbitrary units. In experiment [4], the IC50 was determined as 3850 nM and the “AUC (arbitrary units) UISO” value is 447.9 arbitrary units. Besides, in experiment [5], the IC50 was found to be 3440 nM and the “AUC (arbitrary units) MKL-1” value turned out to be 389.4 arbitrary units. In experiment [6], the IC50 was 2040 nM and the “AUC (arbitrary units) MKL-2” value is on record as 350.1 arbitrary units. Also, in experiment [7], the IC50 is 3290 nM and the “AUC (arbitrary units) WaGa” value came to 405.1 arbitrary units.

As for `CSC1=CC(=O)C=C2S[C@H]3C[C@@]12C1=C(N3)C(=O)c2[nH]cc3c2C1=NCC3` [Compound 7, (+)-(6R,8S) thiomethyldiscorhabdin G*/I], in experiment [1], the IC50 came out at 7960 nM and the “AUC (arbitrary units) HaCaT” value was found to be 745.5 arbitrary units. For the same compound, in experiment [2], the concentration for half-maximal inhibition (IC50) came to 4500 nM and the “AUC (arbitrary units) MCC13” value is listed as 495.1 arbitrary units. For the same compound, in experiment [3], the IC50 worked out at 7890 nM and the “AUC (arbitrary units) MCC26” value stood at 638.2 arbitrary units. In addition, in experiment [4], the IC50 amounted to 3270 nM and the “AUC (arbitrary units) UISO” value came to 360.8 arbitrary units. Further, in experiment [5], the IC50 was 1230 nM and the “AUC (arbitrary units) MKL-1” value was determined as 144.5 arbitrary units. For the same compound, in experiment [7], it took 2990 nM to reach half-maximal inhibition (IC50) and the “AUC (arbitrary units) WaGa” value was 321.6 arbitrary units.

With `Cn1cc2c3c1C(=O)C1=C(C3=NCC2)[C@]2(C=CC(=O)C(Br)=C2)CCN1` [Compound 23, (+)-(6S)-N-13-methyldiscorhabdin E], in experiment [1], the IC50 stood at 2980 nM and the “AUC (arbitrary units) HaCaT” value came to 319.6 arbitrary units. Also, in experiment [2], 1290 nM corresponded to half-maximal inhibition (IC50) and the “AUC (arbitrary units) MCC13” value worked out at 155.7 arbitrary units. In experiment [3], half-maximal inhibition (IC50) was put at 2880 nM and the “AUC (arbitrary units) MCC26” value amounted to 306.3 arbitrary units. Further, in experiment [4], the IC50 is 781 nM and the “AUC (arbitrary units) UISO” value came to 90.78 arbitrary units. In experiment [5], the IC50 amounted to 186 nM and the “AUC (arbitrary units) MKL-1” value was 23.33 arbitrary units. In addition, in experiment [7], the IC50 stood at 546 nM and the “AUC (arbitrary units) WaGa” value amounted to 65.1 arbitrary units.

Consider `O=C1C2=C(C3=NCCc4c[nH]c1c43)c1c(cc(Br)c(O)c1Br)CCN2` [Compound 24, discorhabdin C phenol], for which, in experiment [1], the IC50 is greater than 10000 nM and the “AUC (arbitrary units) HaCaT” value came out at 884.9 arbitrary units. In addition, in experiment [2], the IC50 was found to be 4640 nM and the “AUC (arbitrary units) MCC13” value was 528.6 arbitrary units. For the same compound, in experiment [3], the 50% inhibitory concentration (IC50) came to 6920 nM and the “AUC (arbitrary units) MCC26” value is listed as 708.7 arbitrary units. Also, in experiment [4], the IC50 is 4210 nM and the “AUC (arbitrary units) UISO” value came out at 493.2 arbitrary units. In experiment [5], the IC50 stood at 2330 nM and the “AUC (arbitrary units) MKL-1” value was found to be 279.7 arbitrary units. Moreover, in experiment [7], the half-inhibitory concentration (IC50) was 5460 nM and the “AUC (arbitrary units) WaGa” value came to 611.2 arbitrary units.
